Results from ChEMBL document CHEMBL6114967, “Design and synthesis of novel sulfur-substituted triptolide with the ability to induce autophagy through inhibition of SRSF1 expression” (Eur J Med Chem, 2025).
Calls of active or inactive are those of the source. The calls are words filed in the database; no cut-off is given here.

Key:
HGC-27 [1] = assay: Induction of cell cycle arrest in human HGC-27 cells assessed as increase in S phase ratio at 0.5 to 2 uM incubated for 24 hrs by staining based flow cytometric analysis ( Rvb = 50.19%); format: functional; details: dose 0.5-2 µM
AGS [2] = assay: Induction of cell cycle arrest in human AGS cells assessed as reduction in CyclinE2 expression at 0.5 to 2 uM by Western blotting analysis; format: functional, cell-based; details: dose 0.5-2 µM
HGC-27 [3] = assay: Induction of autophagy in human HGC-27 cells assessed as upregulation of LC3 II protein level at 0.5 to 2 uM incubated for 48 hrs by Western blotting analysis; format: functional, cell-based; details: dose 0.5-2 µM
SGC-7901 = assay: Antiproliferative activity against human SGC-7901 cells assessed as inhibition of cell proliferation incubated for 72 hrs by MTT assay; format: functional, cell-based; details: SGC-7901, 72 h
AGS [4] = assay: Induction of autophagy in human AGS cells assessed as downregulation of P62 protein level at 0.5 to 2 uM incubated for 48 hrs by Western blotting analysis; format: functional, cell-based; details: dose 0.5-2 µM
AGS [5] = assay: Induction of apoptosis in human AGS cells assessed as viable cells at 1 uM incubated for 48 hrs by annexin V-FITC and PI staining based flow cytometry analysis (reference value: 92.0%); format: functional; details: read-out: Activity
HGC-27 [6] = assay: Induction of cell cycle arrest in human HGC-27 cells assessed as reduction in CyclinE2 expression at 0.5 to 2 uM by Western blotting analysis; format: functional, cell-based; details: dose 0.5-2 µM
BGC-823 = assay: Antiproliferative activity against human BGC-823 cells assessed as inhibition of cell proliferation incubated for 72 hrs by MTT assay; format: functional, cell-based; details: BGC-823, 72 h

Compound: CC(C)[C@]12O[C@H]1[C@@H]1O[C@]13[C@]1(O[C@H]1C[C@H]1C4=C(CC[C@@]13C)C(=S)OC4)[C@@H]2O
- Activity (HGC-27 [1]): 75.34%
- Activity (AGS [2]): Active
- Activity (HGC-27 [3]): Active
- IC50 (SGC-7901): 1.8 µM
- Activity (AGS [4]): Active
- viability at 1 µM (AGS [5]): 65.1%
- Activity (HGC-27 [6]): Active
- IC50 (BGC-823): 1.33 µM
